Test results published in ChEMBL document CHEMBL3856265, “Conditional changes enhanced production of bioactive metabolites of marine derived fungus Eurotium rubrum” (Bioorg Med Chem Lett, 2016).

Experiment: Inhibition of melanogenesis in theophylline-stimulated mouse B16-4A5 cells assessed as reduction in melanin level incubated for 72 hrs
Type: functional, cell-based
Conditions: B16-4A5, 72 h

| Compound | IC50 |
| --- | --- |
| C=CC(C)(C)c1[nH]c2c(CC=C(C)C)cc(CC=C(C)C)cc2c1C[C@@H]1NC(=O)[C@H](C)NC1=O [ECHINULIN] | 68 µM |
| OC[C@H]1O[C@H](Oc2ccc(O)cc2)[C@H](O)[C@@H](O)[C@@H]1O | 611 µM |
